According to the NIST ThermoML archive (doi:10.1016/j.jct.2015.09.022):

Experiment: xn = mol fraction of the nth substance listed
Details: 100.7 kPa, Liquid; for viscosity: Falling or rolling sphere viscometry; for speed of sound: Frequency=3 MHz, Sing-around technique in a fixed-path interferometer; for mass density: Vibrating tube method

CCCC[n+]1ccn(C)c1.O=S(=O)([N-]S(=O)(=O)C(F)(F)F)C(F)(F)F + CCCCOC(C)=O
Details | mass density [kg/m3] | speed of sound [m/s] | viscosity [mPa·s]
298.15 K, x1 = 0.0252 | – | 1187.2 | –
298.15 K, x1 = 0.0521 | – | 1185.1 | –
298.15 K, x1 = 0.0754 | – | 1183.4 | –
298.15 K, x1 = 0.11 | 1002.7 | 1182 | 1.65
298.15 K, x1 = 0.2089 | 1091.17 | 1182.3 | 3.16
298.15 K, x1 = 0.2993 | 1157.05 | 1184.9 | 5.48
298.15 K, x1 = 0.393 | 1214.08 | 1189 | 8.7
298.15 K, x1 = 0.4847 | 1261.35 | 1194 | 13
298.15 K, x1 = 0.5739 | 1300.9 | 1199.2 | 18.01
298.15 K, x1 = 0.687 | 1344.53 | 1206.6 | 25.24
298.15 K, x1 = 0.7791 | 1375.41 | 1212.7 | 31.73
298.15 K, x1 = 0.9056 | 1412.56 | 1221.6 | 41.39
298.15 K, x1 = 1 | 1436.82 | 1227.8 | 50.04
303.15 K, x1 = 0.0252 | – | 1167.5 | –
303.15 K, x1 = 0.0521 | – | 1165.2 | –
303.15 K, x1 = 0.0754 | – | 1164.2 | –
303.15 K, x1 = 0.11 | 997.7 | 1163.8 | 1.32
303.15 K, x1 = 0.2089 | 1086.13 | 1165.8 | 2.47
303.15 K, x1 = 0.2993 | 1152.05 | 1169.6 | 4.19
303.15 K, x1 = 0.393 | 1209.12 | 1174.7 | 6.7
303.15 K, x1 = 0.4847 | 1256.55 | 1180.5 | 10
303.15 K, x1 = 0.5739 | 1296 | 1186.3 | 13.81
303.15 K, x1 = 0.687 | 1339.68 | 1194.3 | 19.35
303.15 K, x1 = 0.7791 | 1370.57 | 1201.8 | 25.04
303.15 K, x1 = 0.9056 | 1407.82 | 1211.6 | 33.3
303.15 K, x1 = 1 | 1431.98 | 1217.5 | 40.72
308.15 K, x1 = 0.0252 | – | 1147.2 | –
308.15 K, x1 = 0.0521 | – | 1146.7 | –
308.15 K, x1 = 0.0754 | – | 1146.3 | –
308.15 K, x1 = 0.11 | 992.65 | 1145.8 | 1.08
308.15 K, x1 = 0.2089 | 1081.08 | 1149.4 | 2
308.15 K, x1 = 0.2993 | 1147.06 | 1154.5 | 3.3
308.15 K, x1 = 0.393 | 1204.12 | 1160.6 | 5.35
308.15 K, x1 = 0.4847 | 1251.44 | 1167.2 | 7.85
308.15 K, x1 = 0.5739 | 1291.12 | 1173.6 | 10.8
308.15 K, x1 = 0.687 | 1335.03 | 1182.2 | 15.26
308.15 K, x1 = 0.7791 | 1365.95 | 1189.1 | 20
308.15 K, x1 = 0.9056 | 1403.1 | 1199.2 | 27.56
308.15 K, x1 = 1 | 1427.16 | 1205.2 | 33.73
313.15 K, x1 = 0.0252 | – | 1128.5 | –
313.15 K, x1 = 0.0521 | – | 1127 | –
313.15 K, x1 = 0.0754 | – | 1127.2 | –
313.15 K, x1 = 0.11 | 987.68 | 1127.8 | 0.96
313.15 K, x1 = 0.2089 | 1076.25 | 1133.2 | 1.72
313.15 K, x1 = 0.2993 | 1142.16 | 1139.5 | 2.81
313.15 K, x1 = 0.393 | 1199.24 | 1146.2 | 4.65
313.15 K, x1 = 0.4847 | 1246.74 | 1153.9 | 6.64
313.15 K, x1 = 0.5739 | 1286.33 | 1161 | 8.59
313.15 K, x1 = 0.687 | 1330.2 | 1170.2 | 12.16
313.15 K, x1 = 0.7791 | 1361.33 | 1178.5 | 15.96
313.15 K, x1 = 0.9056 | 1398.49 | 1188.4 | 22.61
313.15 K, x1 = 1 | 1422.37 | 1194.4 | 28.28
318.15 K, x1 = 0.0252 | – | 1108.2 | –
318.15 K, x1 = 0.0521 | – | 1109.2 | –
318.15 K, x1 = 0.0754 | – | 1109.6 | –
318.15 K, x1 = 0.11 | 982.52 | 1110 | 0.8
318.15 K, x1 = 0.2089 | 1071.24 | 1117.1 | 1.49
318.15 K, x1 = 0.2993 | 1137.09 | 1124.6 | 2.35
318.15 K, x1 = 0.393 | 1194.31 | 1132 | 3.96
318.15 K, x1 = 0.4847 | 1241.85 | 1140.8 | 5.5
318.15 K, x1 = 0.5739 | 1281.71 | 1148.4 | 6.92
318.15 K, x1 = 0.687 | 1325.49 | 1159.3 | 9.96
318.15 K, x1 = 0.7791 | 1356.79 | 1168 | 13.17
318.15 K, x1 = 0.9056 | 1393.84 | 1178.5 | 18.87
318.15 K, x1 = 1 | 1417.6 | 1184.5 | 24.01
323.15 K, x1 = 0.0252 | – | 1089.6 | –
323.15 K, x1 = 0.0521 | – | 1090.2 | –
323.15 K, x1 = 0.0754 | – | 1091.3 | –
323.15 K, x1 = 0.11 | 977.62 | 1092.3 | 0.83
323.15 K, x1 = 0.2089 | 1066.34 | 1101.2 | 1.37
323.15 K, x1 = 0.2993 | 1132.21 | 1109.9 | 2
323.15 K, x1 = 0.393 | 1189.38 | 1118.7 | 2.93
323.15 K, x1 = 0.4847 | 1236.98 | 1127.9 | 4.14
323.15 K, x1 = 0.5739 | 1276.92 | 1136 | 5.48
323.15 K, x1 = 0.687 | 1320.8 | 1147.5 | 8.24
323.15 K, x1 = 0.7791 | 1352.11 | 1155.7 | 10.74
323.15 K, x1 = 0.9056 | 1389.18 | 1166.3 | 15.82
323.15 K, x1 = 1 | 1412.86 | 1171.3 | 20.32
